Like-named read-outs stand apart in the source and are kept apart here.
Assays:
[1] = tested on: Brucella abortus Strain 19; format: cell-based; conditions: Strain 19 [vaccine strain]
Campylobacter fetus = assay: Antibiotic sensitivity of bacterial isolate; format: cell-based
[2] = tested on: fresh semen of domestic bulls (Bos taurus)
[3] = tested on: fresh semen of gaur (Bos gaur) bulls
[4] = tested on: cryopreserved bovine (Bos gaurus) sperm

Compound | sensitivity of B. abortus to antibiotic [1] | sensitivity of C. fetus to antibiotic (Campylobacter fetus; laboratory isolate [4914]) | sensitivity of C. fetus to antibiotic (Campylobacter fetus) | detrimental effects on sperm (motility, viability, acrosomal integrity) [2] | detrimental effects on sperm (motility, viability, acrosomal integrity) [3] | detrimental effects of increasing the concentration [4]
CCC[C@@H]1C[C@@H](C(=O)N[C@@H]([C@H]2O[C@H](SC)[C@H](O)[C@@H](O)[C@H]2O)[C@@H](C)O)N(C)C1 [lincomycin] | resistant | sensitive |  |  |  | 
gentamicin | sensitive |  | sensitive |  |  | 
CN[C@@H]1[C@H](O)[C@H](NC)[C@H]2O[C@@]3(O)C(=O)C[C@@H](C)O[C@H]3O[C@@H]2[C@H]1O [spectinomycin] | sensitive | intermediate |  |  |  | 
CC[C@H]1OC(=O)C[C@@H](O)[C@H](C)[C@@H](O[C@@H]2O[C@H](C)[C@@H](O[C@H]3C[C@@](C)(O)[C@@H](O)[C@H](C)O3)[C@H](N(C)C)[C@H]2O)[C@@H](CC=O)C[C@@H](C)C(=O)/C=C/C(C)=C/[C@@H]1CO[C@@H]1O[C@H](C)[C@@H](O)[C@@H](OC)[C@H]1OC [tylosin] | intermediate | intermediate |  |  |  | 
trypsin |  |  |  | no detrimental affects | no detrimental affects | no detrimental effects
